Tests used:
HepG-2 cells = test: HepG-2 HCC animal model, antitumor efficacy against solid tumors; type: in vivo, male nude mice; conditions: HepG-2 xenograft; Conjugate 4 at 2.0 mg/kg, Conjugates 8, 9, 10 at 6.0 mg/kg, i.p. daily for 4 weeks; vehicle group increased to 17.72 times
Experimental: To evaluate the antitumor efficacy of the novel triptolide-conjugate against solid tumors, HepG-2 cells (~10×10^6 cells) were injected into the right flank of male nude mice. when the tumors were reached a volume of ~150 mm^3, mice were randomly divided into 5 groups with 8 mice per group and treated as below indicated. Tumor volumes were measured twice per week and estimated by using the formula: Tumor volume (V)=(L×W×W) 2, W is tumor width, L is tumor length. • 1. Group 1 is the control in which the mice were daily administered vehicle (i.p. brine) for 4 weeks; • 2. in Group 2, mice were daily administered Conjugate 4 (2.0 mg/kg, i.p.) for 4 weeks; • 3. in Group 3, mice were daily administered Conjugate 8 (6.0 mg/kg, i.p.) for 4 weeks; • 4. in Group 4, mice were daily administered Conjugate 9 (6.0 mg/kg i.p.) for 4 weeks; • 5. in Group 5, mice were daily administered Conjugate 10 (6.0 mg/kg, i.p.) for 4 weeks;

huh-7 cells = test: Huh-7 HCC animal model, antitumor efficacy against solid tumors; type: in vivo, male nude mice; conditions: Huh-7 xenograft; for Tumor volume (V) 4 days after treatment: Compound 1 and 2 at 2.0 mg/kg i.p. once daily, Lenvatinib 5.0 mg/kg oral once daily, control V=598 mm^3; for Tumor inhibition rate based on the average tumor weights: after 21 days treatment, Compound 1 and 2 at 2.0 mg/kg i.p. daily, Lenvatinib 5.0 mg/kg oral daily; for Increase of average tumor volume by the end of the treatment compared to before the treatment: end of 3 weeks daily treatment, given as 'increased up to', control up to 15 times
Experimental: To evaluate the antitumor efficacy of the triptolide conjugates disclosed herein against solid tumors, huh-7 cells (~10×10^6 cells) were injected into the right flank of male nude mice. When the tumors reached a volume of ~150 mm^3, the mice were randomly divided into 4 groups with 7 or 8 mice per group and were treated as below indicated. Tumor volumes were measured twice per week and estimated by using the formula: Tumor volume (V)=(L×W×W)÷2, W is tumor width, L is tumor length. • 1. Group 1 was the control group in which the mice were administered daily the vehicle (0.5% CMC-Na/carboxymethylcellulose sodium, i.p.) for 3 weeks; • 2. Group 2 was the test group in which the mice were administered daily Compound 1 (2.0 mg/kg, i.p.) for 3 weeks; • 3. Group 3 was the test group in which the mice were administered daily Compound 2 (2.0 mg/kg, i.p.) for 3 weeks; and • 4. Group 4 was the positive control group in which the mice where administered daily Lenvatinib (5.0 mg/kg, oral) for 3 weeks.

| Structure (SMILES) | Tumor size after 28 days treatment (HepG-2 cells) | Tumor volume (V) 4 days after treatment (huh-7 cells) | Tumor inhibition rate based on the average tumor weights (huh-7 cells) | Increase of average tumor volume by the end of the treatment compared to before the treatment (huh-7 cells) |
| --- | --- | --- | --- | --- |
| CC(C)[C@]12O[C@H]1[C@@H]1O[C@]13[C@]1(O[C@H]1CC1C4=C(CC[C@@]13C)C(=O)OC4)[C@@H]2OC(=O)CCC(=O)NC(COCCC(=O)NCCCNC(=O)CCCC(=O)N[C@H]1C(O)O[C@H](CO)[C@@H](O)[C@@H]1O)(COCCC(=O)NCCCNC(=O)CCCC(=O)N[C@H]1C(O)O[C@H](CO)[C@@H](O)[C@@H]1O)COCCC(=O)NCCCNC(=O)CCCC(=O)N[C@H]1C(O)O[C@H](CO)[C@@H](O)[C@@H]1O (stereo partly shown) [Compound 8] | gradually shrinked to disappear |  |  |  |
| COc1cc2nccc(Oc3ccc(NC(=O)NC4CC4)c(Cl)c3)c2cc1C(N)=O [Lenvatinib, reference compound] |  | 381 mm^3 | 42.3% | ≤ 9 times |
| CC(C)[C@]12O[C@H]1[C@@H]1O[C@]13[C@]1(O[C@H]1C[C@H]1C4=C(CC[C@@]13C)C(=O)OC4)[C@@H]2OC(=O)CNC(=O)CNC(=O)COC[C@H]1OC(O)[C@H](O)[C@@H](O)[C@@H]1O (stereo partly shown) [Compound 4] | gradually shrinked to disappear |  |  |  |
| CC(=O)N[C@H]1[C@H](OCCCCC(=O)NCCCNC(=O)CCOCC(COCCC(=O)NCCCNC(=O)CCCCO[C@@H]2O[C@H](CO)[C@H](O)[C@H](O)[C@H]2NC(C)=O)(COCCC(=O)NCCCNC(=O)CCCCO[C@@H]2O[C@H](CO)[C@H](O)[C@H](O)[C@H]2NC(C)=O)NC(=O)CCC(=O)O[C@@H]2[C@@]3(C(C)C)O[C@H]3[C@@H]3O[C@]34[C@]23O[C@H]3CC2C3=C(CC[C@@]24C)C(=O)OC3)O[C@H](CO)[C@H](O)[C@@H]1O (stereo partly shown) [Compound 10] | gradually shrinked to disappear |  |  |  |
| CC(C)[C@]12O[C@H]1[C@@H]1O[C@]13[C@]1(O[C@H]1C[C@H]1C4=C(CC[C@@]13C)C(=O)OC4)[C@@H]2OC(=O)CCC(=O)OC[C@H]1OC(O)[C@H](F)[C@@H](O)[C@@H]1O (stereo partly drawn) [Compound 1, ((2R,3S,4S,5R)-5-fluoro-3,4,6-trihydroxytetrahydro-2H-pyran-2-yl)methyl ((5bS,6aS,7aR,8R,8aS,9aS,9bS,10aS,10bS)-8a-isopropyl-10b-methyl-3-oxo-1,2,3,5,5b,6,6a,8,8a,9a,9b,10b-dodecahydrotris(oxireno)[2′,3′:4b,5;2″,3″:6,7;2′″,3′″:8a,9]phenanthro[1,2-c]furan-8-yl) succinate] |  | 245 mm^3 | 88.3% | up to 2.0 times |
| CC(C)[C@]12O[C@H]1[C@@H]1O[C@]13[C@]1(O[C@H]1CC1C4=C(CC[C@@]13C)C(=O)OC4)[C@@H]2OC(=O)CCC(=O)NC(COCCC(=O)NCCCNC(=O)CCCCO[C@@H]1O[C@H](CO)[C@@H](O)[C@H](O)[C@H]1O)(COCCC(=O)NCCCNC(=O)CCCCO[C@@H]1O[C@H](CO)[C@@H](O)[C@H](O)[C@H]1O)COCCC(=O)NCCCNC(=O)CCCCO[C@@H]1O[C@H](CO)[C@@H](O)[C@H](O)[C@H]1O (stereo partly shown) [Compound 9] | gradually shrinked to disappear |  |  |  |
| CC(C)[C@]12O[C@H]1[C@@H]1O[C@]13[C@]1(O[C@H]1C[C@H]1C4=C(CC[C@@]13C)C(=O)OC4)[C@@H]2OC(=O)CCC(=O)N1CCN(C(=O)CCC(=O)N[C@@H]2C(O)O[C@@H](CO)[C@H](O)[C@H]2O)CC1 (stereo partly drawn) [Compound 2, (5bS,6aS,7aR,8R,8aS,9aS,9bS,10aS,10bS)-8a-isopropyl-10b-methyl-3-oxo-1,2,3,5,5b,6,6a,8,8a,9a,9b,10b-dodecahydrotris(oxireno)[2′,3′:4b,5;2″,3″:6,7;2′″,3′″:8a,9]phenanthro[1,2-c]furan-8-yl 4-oxo-4-(4-(4-oxo-4-(((3S,4S,5R,6S)-2,4,5-trihydroxy-6-(hydroxymethyl)tetrahydro-2H-pyran-3-yl)amino)butanoyl)piperazin-1-yl)butanoate] |  | 315 mm^3 | 84.4% | ≤ 2.7 times |

From patent US12715894B2, “Triptolide conjugates and uses thereof” (priority 2020, dated 2026)
